Laboratory results taken from article PMC9781827, “Isolation and Identification of Anti-Inflammatory Peptide from Goose Blood Hydrolysate to Ameliorate LPS-Mediated Inflammation and Oxidative Stress in RAW264.7 Macrophages” (Molecules, 2022).
Values joined by “and” are separate entries in the source; they are usually repeats but may differ in a detail not shown here. Equal values may be shown once.

Experiments:
Format in all cases: cell-based
[1] = system: IL-1β; experiment: IL-1β level by ELISA in culture medium, model of LPS-mediated RAW264.7 macrophage inflammation; conditions: LPS group: LPS (1.0 μg/mL) alone, 24 h; mean ± S.D., n = 3
Procedure: (§1) The anti-inflammatory activity of the peptides was determined according to the methods of a previous study. The anti-inflammatory activity of different fractions was evaluated by measuring the levels of the inflammatory cytokines (TNF-α, IL-1β and IL-6) in a model of LPS-induced macrophage inflammation with ELISA kits (Jiangsu Enzyme marker Biotechnology Co., Ltd., Yancheng, China). […] A 20 mmol/L Tris-HCl (pH 8.0) solution was used as the start buffer and 20 mmol/L Tris-HCl/1 mol/L NaCl (pH 8.0) was used as elution buffer. Elution program: (1) wash with 5 column volumes of starting buffer; (2) elute with 10 column volumes of 50% elution buffer and 50% start buffer; (3) elute with 5 column volumes of 100% elution buffer. The above flow rates were 5 mL/min. The fractions were detected at 280 nm by an ultraviolet detector and collected by an automatic fraction collector.
(§2) The method of RAW264.7 macrophage culture and treatments were based on the study of Li et al.. […] Macrophages from passages 5 to 10 were selected to seed on 96-well culture plates at a density of 4 × 10^5 cells/well and cultured with different concentrations of LPS (0.5 μg/mL, 1.0 μg/mL and 2.0 μg/mL) for 24 h. The optimal concentration of LPS for inducing inflammation in the RAW264.7 macrophage was ensured according to cell viability. […] The ability of GBP to protect RAW264.7 macrophages was evaluated. […]

[2] = system: GSH-Px; experiment: GSH-Px activity in LPS-mediated RAW264.7 macrophages; conditions: LPS alone; mean ± S.D., n = 3
Procedure: The culture medium was collected and centrifuged at 3000× g for 10 min. Then, the inflammatory cytokines levels of TNF-α (MB-50051A), IL-1β (MB-50064B) and IL-6 (MB-50054A) in the culture medium were determined with ELISA kits (Jiangsu Enzyme marker Biotechnology Co., Ltd., Yancheng, China). […] (7) Add 50 μL of stop solution to each well, and measure its absorbance value at 450 nm wavelength. The activities of SOD, GSH-Px and the levels of ROS and Nitric oxide (NO) in macrophages were determined with spectrophotometric kits. […] The absorbance value of miscible liquid was measured at 450 nm wavelength by a multifunctional microplate reader; GSH-Px: 0.2 mL of sample was mixed with 0.2 mL GSH-Px (1 mmol/L) and performed at 37 °C for 5 min. […] The absorbance value was measured at 412 nm wavelength by a multifunctional microplate reader; ROS: DCFH-DA probe was added directly to serum-free medium: DCFH-DA was generally diluted with serum-free medium at a final concentration of 10 µM at 1:1000. […] In general, obvious green fluorescence can be observed in positive control cells after 20 min of stimulation. […] It can also be detected according to FITC fluorescence detection conditions. The results were expressed as fluorescence values.

[3] = system: TNF-α; experiment: TNF-α level by ELISA in culture medium, model of LPS-mediated RAW264.7 macrophage inflammation; conditions: LPS group: LPS (1.0 μg/mL) alone, 24 h; mean ± S.D., n = 3
Procedure: as §1, §2

## lipopolysaccharide [LPS]
[1]
  level of IL-1β: 485.75 ± 50.29 pg/mL
[2]
  level of GSH-Px: 44.63 ± 2.72 U/mg prot
[3]
  level of TNF-α: 271.35 ± 17.35 pg/mL and 273.77 ± 11.93 pg/mL
